Laboratory results taken from PubChem BioAssay (NCI).
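Here, GI50 denotes the concentration required for 50% inhibition of growth. TGI marks complete inhibition of growth.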

Tests used:
Assay in all cases: inhibition of tumour cell growth, NCI panel, 384-well format
A549 NSCLC = test system: A549 NSCLC
ACHN renal = test system: ACHN renal
BT-549 breast = test system: BT-549 breast
CAKI-1 renal = test system: CAKI-1 renal
CCRF-CEM leukemia = test system: CCRF-CEM leukemia
COLO 205 colon = test system: COLO 205 colon
EKVX NSCLC = test system: EKVX NSCLC
HCT-116 colon = test system: HCT-116 colon
HCT-15 colon = test system: HCT-15 colon
HL-60(TB) leukemia = test system: HL-60(TB) leukemia
HOP-62 NSCLC = test system: HOP-62 NSCLC
HOP-92 NSCLC = test system: HOP-92 NSCLC
HT29 colon = test system: HT29 colon
IGROV1 ovarian = test system: IGROV1 ovarian
K-562 leukemia = test system: K-562 leukemia
KM12 colon = test system: KM12 colon
M14 melanoma = test system: M14 melanoma
MALME-3M melanoma = test system: MALME-3M melanoma
MDA-MB-231 breast = test system: MDA-MB-231 breast
MDA-MB-435 melanoma = test system: MDA-MB-435 melanoma
MDA-MB-468 breast = test system: MDA-MB-468 breast
MOLT-4 leukemia = test system: MOLT-4 leukemia
NCI-H226 lung = test system: NCI-H226 lung
NCI-H23 lung = test system: NCI-H23 lung
NCI-H322M lung = test system: NCI-H322M lung
NCI-H460 NSCLC = test system: NCI-H460 NSCLC
NCI-H522 lung = test system: NCI-H522 lung
NCI/ADR-RES ovarian = test system: NCI/ADR-RES ovarian
OVCAR-3 ovarian = test system: OVCAR-3 ovarian
OVCAR-4 ovarian = test system: OVCAR-4 ovarian
OVCAR-5 ovarian = test system: OVCAR-5 ovarian
OVCAR-8 ovarian = test system: OVCAR-8 ovarian
PC-3 prostate = test system: PC-3 prostate
SF-268 CNS = test system: SF-268 CNS
SF-539 CNS = test system: SF-539 CNS
SK-MEL-2 melanoma = test system: SK-MEL-2 melanoma
SK-MEL-28 melanoma = test system: SK-MEL-28 melanoma
SK-MEL-5 melanoma = test system: SK-MEL-5 melanoma
SN12C renal = test system: SN12C renal
SNB-19 CNS = test system: SNB-19 CNS
SNB-75 CNS = test system: SNB-75 CNS
SR leukemia = test system: SR leukemia
T-47D breast = test system: T-47D breast
TK-10 renal = test system: TK-10 renal
U251 glioblastoma = test system: U251 glioblastoma
UACC-62 melanoma = test system: UACC-62 melanoma
UO-31 renal = test system: UO-31 renal

Structure (SMILES): CNC(=O)c1ccccc1Nc1nc(Nc2ccc3c(c2OC)CCC[C@H](N2CCN(CCO)CC2)C3)ncc1Cl
- GI50 (A549 NSCLC): 1080 nM
- TGI (A549 NSCLC): 2330 nM
- GI50 (ACHN renal): 584 nM
- TGI (ACHN renal): 2120 nM
- GI50 (BT-549 breast): 1970 nM
- TGI (BT-549 breast): 5200 nM
- GI50 (CAKI-1 renal): 511 nM
- TGI (CAKI-1 renal): 1920 nM
- GI50 (CCRF-CEM leukemia): 1860 nM
- TGI (CCRF-CEM leukemia): 3320 nM
- GI50 (COLO 205 colon): 283 nM
- TGI (COLO 205 colon): 960 nM
- GI50 (EKVX NSCLC): 236 nM
- TGI (EKVX NSCLC): 1320 nM
- GI50 (HCT-116 colon): 934 nM
- TGI (HCT-116 colon): 2320 nM
- GI50 (HCT-15 colon): 533 nM
- TGI (HCT-15 colon): 1730 nM
- GI50 (HL-60(TB) leukemia): 215 nM
- TGI (HL-60(TB) leukemia): 551 nM
- GI50 (HOP-62 NSCLC): 1430 nM
- TGI (HOP-62 NSCLC): 3170 nM
- GI50 (HOP-92 NSCLC): 985 nM
- TGI (HOP-92 NSCLC): 2250 nM
- GI50 (HT29 colon): 303 nM
- TGI (HT29 colon): 1350 nM
- GI50 (IGROV1 ovarian): 800 nM
- TGI (IGROV1 ovarian): 2760 nM
- GI50 (K-562 leukemia): 1430 nM
- TGI (K-562 leukemia): 2820 nM
- GI50 (KM12 colon): 955 nM
- TGI (KM12 colon): 2630 nM
- GI50 (M14 melanoma): 632 nM
- TGI (M14 melanoma): 1850 nM
- GI50 (MALME-3M melanoma): 414 nM
- TGI (MALME-3M melanoma): 1450 nM
- GI50 (MDA-MB-231 breast): 974 nM
- TGI (MDA-MB-231 breast): 2280 nM
- GI50 (MDA-MB-435 melanoma): 833 nM
- TGI (MDA-MB-435 melanoma): 3180 nM
- GI50 (MDA-MB-468 breast): 384 nM
- TGI (MDA-MB-468 breast): 1660 nM
- GI50 (MOLT-4 leukemia): 1280 nM
- TGI (MOLT-4 leukemia): 2560 nM
- GI50 (NCI-H226 lung): 686 nM
- TGI (NCI-H226 lung): 2700 nM
- GI50 (NCI-H23 lung): 673 nM
- TGI (NCI-H23 lung): 2320 nM
- GI50 (NCI-H322M lung): 806 nM
- TGI (NCI-H322M lung): 2330 nM
- GI50 (NCI-H460 NSCLC): 1140 nM
- TGI (NCI-H460 NSCLC): 2480 nM
- GI50 (NCI-H522 lung): 862 nM
- TGI (NCI-H522 lung): 2200 nM
- GI50 (NCI/ADR-RES ovarian): 2120 nM
- TGI (NCI/ADR-RES ovarian): 4370 nM
- GI50 (OVCAR-3 ovarian): 1180 nM
- TGI (OVCAR-3 ovarian): 2770 nM
- GI50 (OVCAR-4 ovarian): 1080 nM
- TGI (OVCAR-4 ovarian): 2790 nM
- GI50 (OVCAR-5 ovarian): 925 nM
- TGI (OVCAR-5 ovarian): 3480 nM
- GI50 (OVCAR-8 ovarian): 1500 nM
- TGI (OVCAR-8 ovarian): 3180 nM
- GI50 (PC-3 prostate): 2020 nM
- TGI (PC-3 prostate): 5060 nM
- GI50 (SF-268 CNS): 1550 nM
- TGI (SF-268 CNS): 3020 nM
- GI50 (SF-539 CNS): 1500 nM
- TGI (SF-539 CNS): 2930 nM
- GI50 (SK-MEL-2 melanoma): 304 nM
- TGI (SK-MEL-2 melanoma): 1050 nM
- GI50 (SK-MEL-28 melanoma): 1390 nM
- TGI (SK-MEL-28 melanoma): 2700 nM
- GI50 (SK-MEL-5 melanoma): 879 nM
- TGI (SK-MEL-5 melanoma): 2150 nM
- GI50 (SN12C renal): 1400 nM
- TGI (SN12C renal): 4340 nM
- GI50 (SNB-19 CNS): 2200 nM
- TGI (SNB-19 CNS): 5900 nM
- GI50 (SNB-75 CNS): 1430 nM
- TGI (SNB-75 CNS): 3220 nM
- GI50 (SR leukemia): 18.6 nM
- TGI (SR leukemia): 34.7 nM
- GI50 (T-47D breast): 1280 nM
- TGI (T-47D breast): 2710 nM
- GI50 (TK-10 renal): 783 nM
- TGI (TK-10 renal): 2480 nM
- GI50 (U251 glioblastoma): 1430 nM
- TGI (U251 glioblastoma): 2830 nM
- GI50 (UACC-62 melanoma): 673 nM
- TGI (UACC-62 melanoma): 1930 nM
- GI50 (UO-31 renal): 1080 nM
- TGI (UO-31 renal): 2290 nM
